In US20250368687A1, “SHORT SYNTHETIC PEPTIDES AND USES THEREOF IN THE TREATMENT OF ENTEROVIRUS INFECTION” (CITY UNIVERSITY OF HONG KONG, priority 2024, published 2025):

Tested on: EV-A71
Test: Viral RNA quantification by RT-qPCR
Format: cell-based
Settings: for viral RNA level (in words) / decrease of viral RNA: intracellular viral RNA; for viral RNA level (in words) / decrease of extracellular viral RNA level / decrease of viral RNA: RD cells; for viral RNA level (in words): indicated concentrations; for decrease of extracellular viral RNA level: 25 μM, EV-A71 MOI 1 for 12 hours; for decrease of viral RNA: 50 μM; for effect on viral RNA level: 8 μM
Experimental: FIGS. 7A-7D Ser78 phosphorylation-deficient Hsp27 inhibits EV-A71 replication and propagation (FIG. 7A) HEK 293T cells were transfected with 500 ng Hsp27 (WT, 3A, S15A, S78A, S82A) plasmids for 48 hours, and then infected with EV-A71 at an MOI of 10 for 9h. Intracellular viral RNA were extracted and quantified by qPCR. (FIG. 7B) HEK 293T cells were transfected with 500 ng Hsp27 (WT, 3D, S15D, S78D, S82D) plasmids for 48 hours, and then infected with EV-A71 at an MOI of 10 for 9h. Intracellular viral RNA were extracted and quantified by qPCR. (FIG. 7C) HEK 293T cells were transfected with 500 ng Hsp27 (WT, S78A, S78D) plasmids for 48 hours, and treated with 8 μM SB203580 2 hours before infection with EV-A71. (FIG. 7D) HEK 293T cells were transfected with 500 ng Hsp27 (WT, 3A, S15A, S78A, S82A) plasmids for 48 hours, and then infected with EV-A71 at an MOI of 10 for 12h. Viral titration was calculated by TCID50. Statistical analyses were carried out using Student's t-test. *: p<0.05, **: p<0.01, ***: p<0.001. Data are expressed as mean ±SD.
FIGS. 10A-10K. Peptide S78 inhibited EV-A71 replication and propagation. (FIG. 10A) RD cells were pre-treated with peptides S78 or for 2 hours and infected with EV-A71 at the MOI of 10 for 6 hours. Cell lysates were collected for western blot assay. Hsp27 phosphorylation on Ser 15, 78, 82 were detected by specific antibodies. β-Actin were detected as internal control. (FIG. 10B) Densitometric analysis of FIG. 9A. (FIG. 10C) HEK 293T cells were pre-treated with peptides S78 or S78A at the concentration of 25 μM for 2 hours and then co-transfected with Hsp27-WT plasmid (800 ng), pIRES reporter plasmid (200 ng) and 2A^pro-expressing plasmid or 2AC110A-expressing plasmid (200 ng) for 24 h, then the luciferase activity was measured. (FIG. 10D-10E) RD cells were treated with peptides S78 or S78A and then infected with EV-A71. EV-A71 VP1 were detected. (FIG. 10F) RD cells were treated with peptides and then infected with EV-A71 at the MOI of 1 for 12 hours. The EV-A71-induced CPE was captured. (FIG. 10G-10H) Intracellular viral RNA was extracted and quantified by qPCR. (FIG. 10I) Densitometric analysis FIG. 9D-E. (FIG. 10J) RD cells were treated with peptides S78 or and then infected with EV-A71 at the MOI of 1 for 12 hours. Extracellular viral RNA was extracted and quantified by qPCR. (FIG. 10K) Viral titration was calculated by TCID50. The Statistical analyses were carried out using Student's t-test. *: p<0.05, **: p<0.01, ***: p<0.001. Data are expressed as mean ±SD.
FIGS. 11A-11G Inhibition of EV-A71 Protein Translation and Viral Reproduction by peptide S82A. (FIG. 11A) HEK 293T cells were pre-treated with peptides NC, S78, S78A, S82A, or S78-3A at the concentration of 25 μM for 2 hours and then co-transfected with Hsp27-WT plasmid (800 ng), pIRES reporter plasmid (200 ng) and 2A^pro-expressing plasmid for 24 h, then the luciferase activity was measured. (FIG. 11B) RD cells were pre-treated with peptides NC at indicated concentrations for 2 hours and infected with EV-A71 at the MOI of 1 for 9 hours. Intracellular viral RNA was extracted and quantified by qPCR. (FIG. 11C-11E) RD cells were treated with peptides NC, S82A, or S78-3A at indicated concentrations for 2 hours and then infected with EV-A71 at the MOI of 1 for 9 hours. Cell lysates were collected for western blot assay. EV-A71 VP1 were detected. β-Actin was detected as an internal control. (FIG. 11F) Densitometric analysis of the EV-A71 VP1 level in FIG. S7C-E was quantified and normalized with β-Actin using ImageJ. (FIG. 11G) RD cells were treated with peptides S78, S78A, S82A, or S78-3A at the concentration of 25 μM for 2 hours and then infected with EV-A71 at the MOI of 0.1 for 24 hours. Viral titration was calculated. The Statistical analyses were carried out using Student's t-test. *: p<0.05, **: p<0.01, ***: p<0.001. Data are expressed as mean ±SD. […]

| Compound | viral RNA level (in words) | decrease of extracellular viral RNA level [folds] | decrease of viral RNA [%] | decrease of viral RNA level (8 μM 2 hours before infection, Hsp27 over-expressing HEK 293T cells) [%] | effect on viral RNA level (Hsp27 S78A-expressing HEK 293T cells) | effect on viral RNA level (Hsp27 S78D-expressing HEK 293T cells) |
| --- | --- | --- | --- | --- | --- | --- |
| Ac-RKKRRQRRRYSREANQPKPSPKRESGEE-NH2 [NC, reference compound] | no effect | – | – | – | – | – |
| Ac-RKKRRQRRRAYSRALSRQLSS-NH2 [S78] | dramatically reduced | 800 | 82 | – | – | – |
| C[S+]([O-])c1ccc(-c2nc(-c3ccncc3)c(-c3ccc(F)cc3)[nH]2)cc1 (stereo not drawn) [SB203580, reference compound] | – | – | – | 50 | no obvious effects | no obvious effects |
| Ac-RKKRRQRRRAYSRALARQLSS-NH2 [S78A] | – | 30 | 46 | – | – | – |
